Tests used:
amidase [1] = test: Amidase induction by inducers (Example 1); format: cell-based, Rhodococcus sp., strain DAP 96253
Method: The induction of nitrile hydratase activity and amidase activity in Rhodococcus sp., strain DAP 96253, was evaluated using multiple types of inducers (1000 ppm). Three different samples were cultured in YEMEA medium containing 10 ppm cobalt and 7.5 g/L urea and supplemented with acrylonitrile, asparagine, or glutamine. The specific nitrile hydratase activity and the specific amidase activity in each sample was evaluated, and the results are provided below in Table 3, with activities provided in units/mg cdw (cell dry weight). One unit of nitrile hydratase activity relates to the ability to convert 1 μmol of acrylonitrile to its corresponding amide per minute, per milligram of cells (dry weight) at a pH of 7.0 and a temperature of 30° C. One unit of amidase activity relates to the ability to convert 1 μmol of acrylamide to its corresponding acid per minute, per milligram of cells (dry weight) pH of 7.0 and a temperature of 30° C.

[2] = test system: Brevibacterium ketoglutaricum ATCC 21533; test: Growth on supplemented YEMEA (visual grade); format: cell-based; design: key: (−) meaning no detectable growth; (+/−) meaning scant growth; (+) meaning little growth; (++) meaning good growth; (+++) meaning very good growth; (++++) meaning excellent growth; settings: 30 °C, 7.5 g/L urea, 10 ppm cobalt, supplement 3.8 mM
Method: (§1) The relative growth of various nitrile hydratase producing microorganisms was evaluated. All strains were grown on YEMEA medium containing 7.5 g/L of urea and 10 ppm cobalt (provided as cobalt chloride) supplemented with asparagine (ASN), glutamine (GLN), or both asparagine and glutamine. The asparagine and glutamine were added at a concentration of 3.8 mM. Growth temperature was in the range of 26° C. to 30° C. Growth was evaluated by visual inspection and graded on the following scale: (−) meaning no detectable growth; (+/−) meaning scant growth; (+) meaning little growth; (++) meaning good growth; (+++) meaning very good growth; and (++++) meaning excellent growth.

[3] = test system: Pseudomonas chloroaphis ATCC 13985; test: Growth on supplemented YEMEA (visual grade); format: cell-based; design: key: (−) meaning no detectable growth; (+/−) meaning scant growth; (+) meaning little growth; (++) meaning good growth; (+++) meaning very good growth; (++++) meaning excellent growth; settings: 26 °C, 7.5 g/L urea, 10 ppm cobalt, supplement 3.8 mM
Method: as §1

[4] = test system: Pseudomonas chloroaphis ATCC 43051; test: Growth on supplemented YEMEA (visual grade); format: cell-based; design: key: (−) meaning no detectable growth; (+/−) meaning scant growth; (+) meaning little growth; (++) meaning good growth; (+++) meaning very good growth; (++++) meaning excellent growth; settings: 30 °C, 7.5 g/L urea, 10 ppm cobalt, supplement 3.8 mM
Method: as §1

[5] = test system: Rhodococcus erythropolis ATCC 47072; test: Growth on supplemented YEMEA (visual grade); format: cell-based; design: key: (−) meaning no detectable growth; (+/−) meaning scant growth; (+) meaning little growth; (++) meaning good growth; (+++) meaning very good growth; (++++) meaning excellent growth; settings: 26 °C, 7.5 g/L urea, 10 ppm cobalt, supplement 3.8 mM
Method: as §1

[6] = test system: Rhodococcus rhodochrous DAP 96622 ATCC 55898; test: Growth on supplemented YEMEA (visual grade); format: cell-based; design: key: (−) meaning no detectable growth; (+/−) meaning scant growth; (+) meaning little growth; (++) meaning good growth; (+++) meaning very good growth; (++++) meaning excellent growth; settings: 26 °C, 7.5 g/L urea, 10 ppm cobalt, supplement 3.8 mM
Method: as §1

[7] = test system: Rhodococcus sp. DAP 96253 ATCC 55899; test: Growth on supplemented YEMEA (visual grade); format: cell-based; design: key: (−) meaning no detectable growth; (+/−) meaning scant growth; (+) meaning little growth; (++) meaning good growth; (+++) meaning very good growth; (++++) meaning excellent growth; settings: 30 °C, 7.5 g/L urea, 10 ppm cobalt, supplement 3.8 mM
Method: as §1

nitrile hydratase = test: Nitrile hydratase production on supplemented medium; format: cell-based; settings: YEMEA, urea, cobalt, supplement 3.8 mM
Method: (§2) The induction of nitrile hydratase production and amidase production in various nitrile hydratase producing microorganisms was evaluated. All strains were grown on YEMEA medium containing 7.5 g/L of urea and 10 ppm cobalt (provided as cobalt chloride) supplemented with asparagine (ASN), glutamine (GLN), or both asparagine and glutamine. The asparagine and glutamine were added at a concentration of 3.8 mM. As a comparative, enzyme production with no supplementation was also tested. Growth temperature was in the range of 26° C. to 30° C.

amidase [8] = test: Amidase production on supplemented medium; format: cell-based; settings: YEMEA, urea, cobalt, supplement 3.8 mM
Method: as §2

asparaginase I [9] = test: Asparaginase I production on supplemented medium; format: cell-based; settings: YEMEA, 7.5 g/L urea, 10 ppm cobalt
Method: as §2, with “asparaginase I” for “nitrile hydratase production and amidase”, “production” for “production with no supplementation”, “evaluated with supplementation with acrylonitrile (AN), acrylamide (AMD) or acrylonitrile and acrylamide.” for “tested.”

amidase [10] = test: 20 liter fermentation with asparagine feed: amidase; format: cell-based, Rhodococcus sp. DAP 96253; settings: end of 20 liter fermentation; asparagine 0.15M at 1000 μl/min from t=10 hour
Method: (§3) Rhodococcus sp. DAP 96253 were grown using biphasic medium as the source of inoculum for a 20 liter fermentation. The supplemental addition of medium/carbohydrate (either YEMEA, dextrose or maltose) was made to the modified R2A medium, containing cottonseed hydrolysate substituted for the Proteos Peptone 3 (PP3). Asparagine (0.15M solution) was added at a continuous rate of 1000 μl/min beginning at t=10 hour. At the end of the fermentation run, 159 units per milligram cell dry weight of acrylonitrile specific nitrile hydratase, 22 units of amidase per milligram cell dry weight, and 16 g/l cell packed wet weight were produced.

asparaginase I [11] = test: 20 liter fermentation with asparagine feed: asparaginase I; format: cell-based, Rhodococcus sp. DAP 96253; settings: end of 20 liter fermentation; asparagine 0.15M at 1000 μl/min from t=10 hour; FIG. 5
Method: as §3

[12] = Brevibacterium ketoglutaricum ATCC 21533, 30 °C
[13] = Pseudomonas chloroaphis ATCC 13985, 26 °C
[14] = Pseudomonas chloroaphis ATCC 43051, 30 °C
[15] = Rhodococcus erythropolis ATCC 47072, 26 °C
[16] = Rhodococcus rhodochrous DAP 96622 ATCC 55898, 26 °C
[17] = Rhodococcus sp. DAP 96253 ATCC 55899, 30 °C

NC(=O)C[C@H](N)C(=O)O [Asparagine, asparagine]
Amidase Activity (amidase [1]; Rhodococcus sp. DAP 96253, YEMEA, 10 ppm cobalt, 7.5 g/L urea, inducer 1000 ppm): 13.24 Units/mg cdw
amidase activity greater than that resulting from acrylonitrile (amidase [1]; relative to acrylonitrile as inducer, 1000 ppm): approximately 74%
Growth [2]: +
Growth [3]: +
Growth [4]: +
Growth [5]: ++
Growth [6]: ++++
Growth [7]: ++++
Nitrile Hydratase Level Based on Growth Medium Supplementation (nitrile hydratase; [12]): 30 Units/mg cdw
Nitrile Hydratase Level Based on Growth Medium Supplementation (nitrile hydratase; [13]): 14 Units/mg cdw
Nitrile Hydratase Level Based on Growth Medium Supplementation (nitrile hydratase; [14]): 28 Units/mg cdw
Nitrile Hydratase Level Based on Growth Medium Supplementation (nitrile hydratase; [15]): 48 Units/mg cdw
Nitrile Hydratase Level Based on Growth Medium Supplementation (nitrile hydratase; [16]): 158 Units/mg cdw
Nitrile Hydratase Level Based on Growth Medium Supplementation (nitrile hydratase; [17]): 155 Units/mg cdw
Amidase Level Based on Growth Medium Supplementation (amidase [8]; [12]): 0 Units/mg cdw
Amidase Level Based on Growth Medium Supplementation (amidase [8]; [13]): 14 Units/mg cdw
Amidase Level Based on Growth Medium Supplementation (amidase [8]; [14]): 0 Units/mg cdw
Amidase Level Based on Growth Medium Supplementation (amidase [8]; [15]): 9 Units/mg cdw
Amidase Level Based on Growth Medium Supplementation (amidase [8]; [16]): 10 Units/mg cdw
Amidase Level Based on Growth Medium Supplementation (amidase [8]; [17]): 13 Units/mg cdw
Asparaginase I Level Based on Growth Medium Supplementation (asparaginase I [9]; [12]): 19.1 Units/mg cdw
Asparaginase I Level Based on Growth Medium Supplementation (asparaginase I [9]; [13]): 0 Units/mg cdw
Asparaginase I Level Based on Growth Medium Supplementation (asparaginase I [9]; [14]): 18.4 Units/mg cdw
Asparaginase I Level Based on Growth Medium Supplementation (asparaginase I [9]; [15]): 1 Units/mg cdw
Asparaginase I Level Based on Growth Medium Supplementation (asparaginase I [9]; [16]): 12.3 Units/mg cdw
Asparaginase I Level Based on Growth Medium Supplementation (asparaginase I [9]; [17]): 12.5 Units/mg cdw
amidase produced (amidase [10]): 22 units per milligram cell dry weight
asparaginase I produced (asparaginase I [11]): 16 units per milligram cell dry weight

From patent US20130035232A1, “INDUCTION AND STABILIZATION OF ENZYMATIC ACTIVITY IN MICROORGANISMS” (GEORGIA STATE UNIVERSITY RESEARCH FOUNDATION, INC., priority 2010, published 2013)
